Measurements reported in patent US20050148627A1, “Benzopyran compounds for use in the treatment and prevention of inflammation related conditions” (priority 2003, published 2005).
pIC50: −log10 of the molar value. Several values for one entry are separate records, joined by “and”; a condition that tells them apart may be missing. Identical values can stand only once.

Target: COX-1 (Homo sapiens, UniProt P23219)
Assay: biochemical

Chain of COX-1 (P23219 24-599): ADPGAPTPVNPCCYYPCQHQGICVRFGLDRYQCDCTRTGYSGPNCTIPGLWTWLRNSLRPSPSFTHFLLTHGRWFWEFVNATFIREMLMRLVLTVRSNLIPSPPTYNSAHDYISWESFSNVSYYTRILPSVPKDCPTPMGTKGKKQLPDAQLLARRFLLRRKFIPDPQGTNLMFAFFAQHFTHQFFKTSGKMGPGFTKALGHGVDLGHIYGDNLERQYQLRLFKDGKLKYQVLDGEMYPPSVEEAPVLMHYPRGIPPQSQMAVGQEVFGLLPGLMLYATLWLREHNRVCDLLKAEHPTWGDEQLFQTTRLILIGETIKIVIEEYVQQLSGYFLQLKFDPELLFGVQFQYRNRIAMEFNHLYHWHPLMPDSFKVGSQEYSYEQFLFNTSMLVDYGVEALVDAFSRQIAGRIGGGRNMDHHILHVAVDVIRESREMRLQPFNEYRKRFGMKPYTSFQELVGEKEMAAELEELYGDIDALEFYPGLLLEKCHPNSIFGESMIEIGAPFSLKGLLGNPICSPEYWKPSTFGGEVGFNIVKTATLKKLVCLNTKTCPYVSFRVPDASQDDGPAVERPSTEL

Row | Compound | pIC50
1 | Cc1cc(Cl)cc2c1NC(C(F)(F)F)C(C(=O)O)=C2 (stereo not drawn) [Example 47, 6-chloro-8-methyl-2-(trifluoromethyl)-1,2-dihydroquinoline-3-carboxylic acid] | < 3.30
2 | O=C(O)C1=Cc2ccc(Oc3ccc([N+](=O)[O-])cc3F)cc2OC1C(F)(F)F (stereo not drawn) [Example 5a, 7-(2-fluoro-4-nitrophenoxy)-2-(trifluoromethyl)-2H-chromene-3-carboxylic acid] | < 4.00 and 3.58 and 3.70
3 | CCCCCCOc1cc(Cl)c2c(c1)C=C(C(=O)O)C(C(F)(F)F)O2 (stereo not drawn) [Example 17e, 8-chloro-6-(hexyloxy)-2-(trifluoromethyl)-2H-chromene-3-carboxylic acid] | > 6.86
4 | CCOc1cc(Br)cc2c1OC(C(F)(F)F)C(C(=O)O)=C2 (stereo not drawn) [Example 26, 6-bromo-8-ethoxy-2-(trifluoromethyl)-2H-chromene-3-carboxylic acid] | < 4.00
5 | Cc1cc(Cl)c(C)c2c1OC(C(F)(F)F)C(C(=O)O)=C2 (stereo not drawn) [Example 105, 6-chloro-5,8-dimethyl-2-(trifluoromethyl)-2H-chromene-3-carboxylic acid] | 5.48 and 5.70
6 | CCN(C)c1cc2c(cc1Cl)C=C(C(=O)O)C(C(F)(F)F)O2 (stereo not drawn) [Example 8f, 6-chloro-7-[ethyl(methyl)amino]-2-(trifluoromethyl)-2H-chromene-3-carboxylic acid] | < 4.00
7 | Cc1cc(Cl)ccc1Cc1cc2c(cc1Cl)C=C(C(=O)O)C(C(F)(F)F)O2 (stereo not drawn) [Example 9p, 6-chloro-7-(4-chloro-2-methylbenzyl)-2-(trifluoromethyl)-2H-chromene-3-carboxylic acid] | 5.82
8 | COc1c(Cl)c(Cl)c2c(c1Cl)C=C(C(=O)O)C(C(F)(F)F)O2 (stereo not drawn) [Example 20a, 5,7,8-trichloro-6-methoxy-2-(trifluoromethyl)-2H-chromene-3-carboxylic acid] | > 6.86
9 | O=C(O)C1=Cc2cc(OCC(F)(F)F)cc(Cl)c2OC1C(F)(F)F (stereo not drawn) [Example 17c, 8-chloro-6-(2,2,2-trifluoroethoxy)-2-(trifluoromethyl)-2H-chromene-3-carboxylic acid] | 5.45 and 6.21
10 | Cc1cc(C)c2c(c1)C=C(C(=O)O)C(C(F)(F)F)O2 (racemic) [Example 32a, 6,8-dimethyl-2-(trifluoromethyl)-2H-chromene-3-carboxylic acid] | < 4.00 and 3.73 and 3.69 and 3.78 and 3.89
11 | O=C(O)C1=Cc2cc(Cl)c(C(=O)c3ccccc3)cc2OC1C(F)(F)F (stereo not drawn) [Example 10, 7-benzoyl-6-chloro-2-(trifluoromethyl)-2H-chromene-3-carboxylic acid] | > 6.86
12 | CCCOc1cc(Cl)c2c(c1)C=C(C(=O)O)C(C(F)(F)F)O2 (stereo not drawn) [Example 17f, 8-chloro-6-propoxy-2-(trifluoromethyl)-2H-chromene-3-carboxylic acid] | 4.93
13 | O=C(O)C1=Cc2cc(Cl)c(SCc3ccccc3)cc2OC1C(F)(F)F (stereo not drawn) [Example 7e, 7-(benzylthio)-6-chloro-2-(trifluoromethyl)-2H-chromene-3-carboxylic acid] | < 4.00
14 | Cc1cc(C)c2c(c1)C=C(C(=O)O)[C@@H](C(F)(F)F)O2 (single isomer, unassigned) [Example 32b] | < 4.00
15 | CC(C)Cc1cc(OC(F)(F)F)cc2c1OC(C(F)(F)F)C(C(=O)O)=C2 (stereo not drawn) [Example 21h, 8-isobutyl-6-(trifluoromethoxy)-2-(trifluoromethyl)-2H-chromene-3-carboxylic acid] | < 4.00 and 3.66
16 | COc1cc(Cl)c2c(c1)C=C(C(=O)O)[C@@H](C(F)(F)F)O2 (single isomer, unassigned) [Example 17i] | 4.09 and 4.44
17 | Cc1ccc(Cc2cc3c(cc2Cl)C=C(C(=O)O)C(C(F)(F)F)O3)c(C)c1 (stereo not drawn) [Example 9s, 6-chloro-7-(2,4-dimethylbenzyl)-2-(trifluoromethyl)-2H-chromene-3-carboxylic acid] | 5.23 and 5.24
18 | O=C(O)C1=Cc2cc(OCc3ccccc3)cc(Cl)c2OC1C(F)(F)F (stereo not drawn) [Example 17d, 6-(benzyloxy)-8-chloro-2-(trifluoromethyl)-2H-chromene-3-carboxylic acid] | 6.44 and > 6.86
